For 13 compounds, IC50 results are on record in patent publication US9453028B2, “Protein kinase C inhibitors and uses thereof” (Rigel Pharmaceuticals, Inc., priority 2009, dated 2016).

One test deals with T1, PKC-alpha (Homo sapiens, UniProt P17252).
T1 construct: purchased Oxford Biomedical Research
As to the kind of experiment: Protein Kinase C assay (fluorescence polarization), PKC-alpha. It is filed as biochemical. The protocol:
(§1) The inhibition of PKC activity was measured by monitoring the production of phosphorylated peptide by fluorescence polarization at different concentrations of the inhibitor. Reactions were carried out in 96-well plate format with a total volume of 20 μL containing 20 mM HEPES, pH 7.4, 5 mM MgCl2, 0.2 mM CaCl2, 1 mM DTT, 0.02% Brij-35, 0.1 mg/mL phosphatidylserine, 0.02 mg/mL dioleoyl-sn-glycerol and 5 μM each of ATP and the peptide substrate. Compounds were first diluted serially in DMSO and then transferred to a solution containing the above concentrations of HEPES, MgCl2, CaCl2, DTT, and Brij-35 to yield 5× compound solutions in 2% DMSO, which was then added to the reaction solution. Reactions were initiated by the addition of PKC at a typical concentration as described in the table below, and then allowed to incubate at room temperature for 20 minutes. At the end of this time, a combination of quench (EDTA) and detection (peptide tracer and antibody) reagents was added using the protocol of Invitrogen P2748 (Carlsbad, Calif.), a Protein Kinase C Fluorescence polarization Assay Kit. After a 30 minute period of incubation, the amount of phosphorylated peptide generated was measured by fluorescence polarization (Ex=485 nm, Em=535 nm) using a Tecan Polarian instrument (Switzerland).
Human recombinant PKC α is obtained from Oxford Biomedical Research and is used under the assay conditions as described under Section A.1 above.
(§2) Several subject compounds were tested according to procedures in the “Characterization of Functional Properties” section. PKC kinase activity was measured using the procedure Section A.1 (Protein Kinase C assay) with the appropriate isoform. The whole cell assay was run according to the procedure in Section A.2 (IL-2 ELISA, Human primary T cell, anti-CD3+CD28+ Assays). […] Blank entries indicate that the IC50 was not determined.
(Polarisation of emitted light reports the rotation of a fluorescent probe.)

A further test addresses T2, PKC-theta (Homo sapiens, UniProt Q04759).
T2 construct: purchased Upstate Biotechnologies, Temecula, CA 14-444
The test is described as follows: Protein Kinase C assay (fluorescence polarization), PKC-theta. It is filed as biochemical. The method, then:
as §1
Human recombinant PKC θ is used under the assay conditions as described above.
as §2

The target in another test is T3, PKC-beta (Homo sapiens, UniProt P05771).
T3 construct: purchased Oxford Biomedical Research
T3 sequence (P05771 whole entry): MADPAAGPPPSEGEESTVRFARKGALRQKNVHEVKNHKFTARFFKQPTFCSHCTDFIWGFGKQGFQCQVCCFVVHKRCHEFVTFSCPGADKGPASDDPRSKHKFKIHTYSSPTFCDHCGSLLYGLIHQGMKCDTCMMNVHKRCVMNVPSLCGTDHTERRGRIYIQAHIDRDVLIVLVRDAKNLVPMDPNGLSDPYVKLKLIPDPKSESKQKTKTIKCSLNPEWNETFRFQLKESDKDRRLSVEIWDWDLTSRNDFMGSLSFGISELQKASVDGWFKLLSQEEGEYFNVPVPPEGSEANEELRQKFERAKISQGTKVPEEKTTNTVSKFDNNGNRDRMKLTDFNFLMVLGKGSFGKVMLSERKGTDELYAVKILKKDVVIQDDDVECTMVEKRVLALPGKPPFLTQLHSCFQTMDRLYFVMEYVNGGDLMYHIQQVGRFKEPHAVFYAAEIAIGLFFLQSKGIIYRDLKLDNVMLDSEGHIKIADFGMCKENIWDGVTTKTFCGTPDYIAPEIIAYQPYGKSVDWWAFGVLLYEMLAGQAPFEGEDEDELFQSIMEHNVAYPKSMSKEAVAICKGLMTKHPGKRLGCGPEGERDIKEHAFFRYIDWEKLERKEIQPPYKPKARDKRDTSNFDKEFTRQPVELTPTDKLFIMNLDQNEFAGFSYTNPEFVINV
The test is described as follows: Protein Kinase C assay (fluorescence polarization), PKC-beta. Format: biochemical. The protocol: as §1
Human recombinant PKC β1 is obtained from Oxford Biomedical Research and is used under the assay conditions as described under Section A.1 above.
as §2

For another test, the target named is T4, PKC-delta (Homo sapiens, UniProt Q05655).
T4 construct: purchased Oxford Biomedical Research
T4 sequence (Q05655 whole entry): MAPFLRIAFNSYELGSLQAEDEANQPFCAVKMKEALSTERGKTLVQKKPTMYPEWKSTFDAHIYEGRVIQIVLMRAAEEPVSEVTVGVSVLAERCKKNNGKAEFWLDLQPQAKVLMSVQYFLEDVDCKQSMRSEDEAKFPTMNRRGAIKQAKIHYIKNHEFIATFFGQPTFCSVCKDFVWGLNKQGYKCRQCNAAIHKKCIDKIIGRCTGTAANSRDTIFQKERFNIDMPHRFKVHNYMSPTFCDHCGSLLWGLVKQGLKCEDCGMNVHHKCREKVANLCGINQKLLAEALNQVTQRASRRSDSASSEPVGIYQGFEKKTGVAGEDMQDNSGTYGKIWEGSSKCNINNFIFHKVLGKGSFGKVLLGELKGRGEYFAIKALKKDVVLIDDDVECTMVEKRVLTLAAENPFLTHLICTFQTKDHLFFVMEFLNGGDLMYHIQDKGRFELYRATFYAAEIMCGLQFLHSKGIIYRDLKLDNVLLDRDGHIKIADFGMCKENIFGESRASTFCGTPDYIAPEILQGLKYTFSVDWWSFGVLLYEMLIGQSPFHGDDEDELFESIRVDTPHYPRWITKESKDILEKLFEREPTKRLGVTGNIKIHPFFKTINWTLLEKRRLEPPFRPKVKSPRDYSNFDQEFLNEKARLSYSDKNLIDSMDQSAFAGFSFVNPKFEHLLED
The test is described as follows: Protein Kinase C assay (fluorescence polarization), PKC-delta. It is filed as biochemical. The protocol:
as §1
Human recombinant PKC δ is obtained from Oxford Biomedical Research and is used under the assay conditions as described under Section A.1 above.
as §2

Another test deals with T5, PKC-epsilon (Homo sapiens, UniProt Q02156).
T5 construct: purchased Upstate Biotechnologies, Temecula, CA 14-518
T5 sequence (Q02156 1-737): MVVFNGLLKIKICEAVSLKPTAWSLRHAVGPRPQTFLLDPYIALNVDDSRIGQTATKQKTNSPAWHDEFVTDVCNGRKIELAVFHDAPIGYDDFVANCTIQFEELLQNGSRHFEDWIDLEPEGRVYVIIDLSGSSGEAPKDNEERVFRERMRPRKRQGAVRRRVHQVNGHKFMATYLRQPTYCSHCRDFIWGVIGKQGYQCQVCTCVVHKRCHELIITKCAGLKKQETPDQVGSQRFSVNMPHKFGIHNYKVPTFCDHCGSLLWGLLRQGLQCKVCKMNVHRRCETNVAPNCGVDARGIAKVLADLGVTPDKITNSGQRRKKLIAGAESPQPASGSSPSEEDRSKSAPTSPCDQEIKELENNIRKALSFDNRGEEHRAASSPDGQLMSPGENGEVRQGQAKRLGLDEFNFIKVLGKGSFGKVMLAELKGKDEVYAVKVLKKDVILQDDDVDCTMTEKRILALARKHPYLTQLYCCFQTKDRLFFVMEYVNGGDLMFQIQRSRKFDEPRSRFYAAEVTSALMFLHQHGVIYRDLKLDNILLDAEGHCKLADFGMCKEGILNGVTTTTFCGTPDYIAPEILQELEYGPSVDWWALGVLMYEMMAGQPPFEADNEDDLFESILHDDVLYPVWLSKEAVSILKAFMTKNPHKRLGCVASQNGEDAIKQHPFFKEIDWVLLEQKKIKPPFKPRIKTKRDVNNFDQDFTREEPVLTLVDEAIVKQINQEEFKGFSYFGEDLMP
The test is described as follows: Protein Kinase C assay (fluorescence polarization), PKC-epsilon. It is filed as biochemical. The protocol: as §1
Human recombinant PKC […] is obtained from Oxford Biomedical Research and is used under the assay conditions as described under Section A.1 above.
as §2

The next test concerns Human primary T cell. As to the kind of experiment: IL-2 ELISA, human primary T cell, anti-CD3+CD28+ whole cell assay. Format: cell-based. The settings on record: IL-2 by ELISA, human primary T cells stimulated with anti-CD3+CD28. The method, then:
2. IL-2 ELISA, Human Primary T Cell, Anti-CD3+CD28+ Assays
Human primary T cells were prepared as follows. Whole blood was obtained from a healthy volunteer, mixed 1:1 with PBS, layered on to Ficoll Hypaque (Amersham Pharmacia Biotech, Piscataway, N.J., Catalog #17-1440-03) in 2:1 blood/PBS:ficoll ratio and centrifuged for 30 minutes at 4° C. at 1750 rpm. The cells at the serum:ficoll interface were recovered and washed twice with 5 volumes of PBS. These freshly isolated human peripheral blood mononuclear cells were cultured in Yssel's medium containing 40 U/mL IL2 in a flask pre-coated with 1 μg/mL αCD3 and 5 μg/mL αCD28 (Anti-Human CD3, BD Pharmingen Catalog #555336, Anti-Human CD28, Beckman Coulter Catalog #1M1376). The cells were stimulated for 3-4 days, then transferred to a fresh flask and maintained in RPMI (RPMI-1640 with L-Glutamine; Mediatech, Inc., Herndon Va., cat. #10-040-CM) with 10% FBS and 40 U/mL IL-2. The primary T-cells were then washed twice with PBS to remove the IL-2.
Human primary T cells (100,000 cells per well) were pre-incubated with or without test compound in Yssel's medium for 1 hr at 37° C. Cells were then stimulated by transferring them to round-bottom 96-well plates pre-coated with 1 μg/ml αCD3 and 5 μg/ml αCD28. For counter assay, cells were instead stimulated by adding 8× stock solutions of PMA and ionomycin in Yssels (for final concentrations of 0.5 ng/ml PMA and 0.1 μM ionomycin, both from Calbiochem). Cells were incubated at 37° C. for 24 hours before 100 μL supernatants were harvested for quantification of IL-2 by ELISA using Human IL-2 Duoset ELISA Kit from R and D Systems, Cat. # DY202E.
as §2

T2 sequence (Q04759 whole entry): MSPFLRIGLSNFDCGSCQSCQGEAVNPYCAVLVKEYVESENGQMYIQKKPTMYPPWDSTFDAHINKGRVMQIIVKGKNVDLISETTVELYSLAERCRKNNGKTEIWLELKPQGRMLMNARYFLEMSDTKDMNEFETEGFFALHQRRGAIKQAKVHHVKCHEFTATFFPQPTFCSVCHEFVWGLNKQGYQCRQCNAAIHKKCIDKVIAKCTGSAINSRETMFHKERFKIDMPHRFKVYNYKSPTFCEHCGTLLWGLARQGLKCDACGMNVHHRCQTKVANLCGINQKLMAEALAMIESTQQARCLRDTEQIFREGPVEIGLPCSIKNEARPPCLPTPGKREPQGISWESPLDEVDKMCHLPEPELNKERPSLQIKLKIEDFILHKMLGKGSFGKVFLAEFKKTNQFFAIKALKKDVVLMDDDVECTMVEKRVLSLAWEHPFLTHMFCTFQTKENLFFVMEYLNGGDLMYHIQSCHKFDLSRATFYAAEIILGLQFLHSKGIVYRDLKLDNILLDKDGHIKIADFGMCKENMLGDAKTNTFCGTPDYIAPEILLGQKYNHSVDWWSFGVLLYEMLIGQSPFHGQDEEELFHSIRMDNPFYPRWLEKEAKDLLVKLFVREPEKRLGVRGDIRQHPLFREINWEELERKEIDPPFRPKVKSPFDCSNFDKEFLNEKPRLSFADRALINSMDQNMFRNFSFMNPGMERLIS

As for `CC1(C)CC(Nc2nc(Nc3ccc4c(c3)-n3nnnc3CO4)ncc2F)CC(C)(C)N1` [Compound 1-1, N2-(4H-benzo[b]tetrazolo[1,5-d][1,4]oxazin-8-yl)-5-fluoro-N4-(2,2,6,6-tetramethylpiperidin-4-yl)pyrimidine-2,4-diamine], the half-inhibitory concentration (IC50) on PKC-alpha, on PKC-theta, at PKC-beta, at PKC-delta, on PKC-epsilon and in the test with Human primary T cell (T-cell) was < 250 nM each time.
Take `CN1C(C)(C)CC(Nc2nc(Nc3ccc4c(c3)-n3nnnc3CO4)ncc2F)CC1(C)C` [Compound 1-2, N2-(4H-benzo[b]tetrazolo[1,5-d][1,4]oxazin-8-yl)-5-fluoro-N4-(1,2,2,6,6-pentamethylpiperidin-4-yl)pyrimidine-2,4-diamine]: the IC50 on PKC-alpha, at PKC-theta, at PKC-beta, on PKC-delta, at PKC-epsilon and in the test with Human primary T cell (T-cell) was < 250 nM each time.
Regarding `CC1(C)CC(Nc2nc(Nc3ccc4c(c3)-n3nnnc3C(F)(F)O4)ncc2F)CC(C)(C)N1` [Compound 1-5, N2-(4,4-difluoro-4H-benzo[b]tetrazolo[1,5-d][1,4]oxazin-8-yl)-5-fluoro-N4-(2,2,6,6-tetramethylpiperidin-4-yl)pyrimidine-2,4-diamine], the IC50 is < 250 nM at PKC-alpha; < 250 nM on PKC-theta; < 250 nM at PKC-beta; < 250 nM on PKC-delta; < 250 nM on PKC-epsilon; 500 to 1000 nM in the test on Human primary T cell (T-cell).
Turning to `CN1C(C)(C)CC(Nc2nc(Nc3ccc4c(c3)-n3nnnc3C(F)(F)O4)ncc2F)CC1(C)C` [Compound 1-6, N2-(4,4-difluoro-4H-benzo[b]tetrazolo[1,5-d][1,4]oxazin-8-yl)-5-fluoro-N4-(1,2,2,6,6-pentamethylpiperidin-4-yl)pyrimidine-2,4-diamine], the IC50 on PKC-alpha is < 250 nM; at PKC-theta it was < 250 nM; on PKC-beta, < 250 nM; on PKC-delta, < 250 nM; at PKC-epsilon it was < 250 nM; in the test on Human primary T cell (T-cell), 250 to 500 nM.
In the case of `CC1(C)CC(Nc2nc(Nc3ccc4c(c3)-n3nnnc3C(C)(C)O4)ncc2F)CC(C)(C)N1` [Compound 1-7, N2-(4,4-dimethyl-4H-benzo[b]tetrazolo[1,5-d][1,4]oxazin-8-yl)-5-fluoro-N4-(2,2,6,6-tetramethylpiperidin-4-yl)pyrimidine-2,4-diamine], the IC50 on PKC-alpha, on PKC-theta, at PKC-beta, at PKC-delta, on PKC-epsilon and in the test on Human primary T cell (T-cell) was < 250 nM in each case.
Turning to `CN1C(C)(C)CC(Nc2nc(Nc3ccc4c(c3)-n3nnnc3C(C)(C)O4)ncc2F)CC1(C)C` [Compound 1-8, N2-(4,4-dimethyl-4H-benzo[b]tetrazolo[1,5-d][1,4]oxazin-8-yl)-5-fluoro-N4-(1,2,2,6,6-pentamethylpiperidin-4-yl)pyrimidine-2,4-diamine], the IC50 on PKC-alpha, at PKC-theta, at PKC-beta, at PKC-delta, on PKC-epsilon and with Human primary T cell (T-cell) was < 250 nM throughout.
The compound `CC1(C)CC(Nc2nc(Nc3ccc4c(c3)-c3nnnn3C(C)(C)O4)ncc2F)CC(C)(C)N1` [Compound 1-9, N2-(5,5-dimethyl-5H-benzo[e]tetrazolo[1,5-c][1,3]oxazin-9-yl)-5-fluoro-N4-(2,2,6,6-tetramethylpiperidin-4-yl)pyrimidine-2,4-diamine] showed an IC50 in the test on Human primary T cell (T-cell) of 500 to 1000 nM.
On the same count and under the same terms, next, `CN1C(C)(C)CC(Nc2nc(Nc3ccc4c(c3)-c3nnnn3C(C)(C)O4)ncc2F)CC1(C)C` [Compound 1-10, N2-(5,5-dimethyl-5H-benzo[e]tetrazolo[1,5-c][1,3]oxazin-9-yl)-5-fluoro-N4-(1,2,2,6,6-pentamethylpiperidin-4-yl)pyrimidine-2,4-diamine]: < 250 nM.
Turning to `CC1(C)CC(Nc2nc(Nc3ccc4c(c3)-n3nnnc3C3(CCC3)O4)ncc2F)CC(C)(C)N1` [Compound 1-11, N2-{2,1-Spiro-butane-4H-tetrazolo[5,1-c][1,4]benzoxazin-8-yl}-5-fluoro-N4-(2,2,6,6-tetramethylpiperidin-4-yl)-2,4-pyrimidinediamine], the IC50 at PKC-alpha, at PKC-theta, at PKC-beta, on PKC-delta, at PKC-epsilon and with Human primary T cell (T-cell) was < 250 nM each time.
On to `CN1C(C)(C)CC(Nc2nc(Nc3ccc4c(c3)-n3nnnc3C3(CCC3)O4)ncc2F)CC1(C)C` [Compound 1-12, N2-{2,1-Spiro-butane-4H-tetrazolo[5,1-c][1,4]benzoxazin-8-yl}-5-fluoro-N4-(1,2,2,6,6-pentamethylpiperidin-4-yl)-2,4-pyrimidinediamine], for which the IC50 on PKC-alpha, at PKC-theta, at PKC-beta, at PKC-delta, at PKC-epsilon and with Human primary T cell was < 250 nM throughout.
`CC1Oc2ccc(Nc3ncc(F)c(NC4CC(C)(C)NC(C)(C)C4)n3)cc2-n2nnnc21` (stereo not shown) [Compound 1-17]: the IC50 on PKC-alpha, on PKC-theta, at PKC-beta, on PKC-delta, on PKC-epsilon and in the test on Human primary T cell (T-cell) was < 250 nM in each case.
Take “N2-(4H-benzo[b]pyrrolo[1,2-d][1,4]oxazin-8-yl)-5-fluoro-N4-(1,2,2,6,6-pentamethylpiperidin-4-yl)pyrimidine-2,4-diamine [Compound 1-4]”: the IC50 in the test on Human primary T cell was 1000 to 5000 nM.
Still for that read-out and setting: then “N2-(4H-benzo[b]pyrrolo[1,2-d][1,4]oxazin-8-yl)-5-fluoro-N4-(2,2,6,6-tetramethylpiperidin-4-yl)pyrimidine-2,4-diamine [Compound 1-3]”, with 1000 to 5000 nM.

In general, IC50 refers to the concentration needed to halve the response being measured.
